Key:
Assay type in all cases: in vivo, C57BL/6J male mice
[1] = Body weight changes of mice fed test diets for 5 weeks; conditions: conclusion from diet groups, C8 vs C10 and C12
Protocol: (§1) Seven (7)-week-old C57BL/6J male mice (Japan SLC, Inc.) were acclimated with CLEA Rodent Diet CE-2 (manufactured by CLEA Japan, Inc.) for 1 week, and divided into 5 groups (n=9 or 10). Any of feeds having the compositions indicated in Tables 1 and 2, i.e., four types of test diets and a normal diet, was given to the respective groups for 5 weeks. Specifically, as the test diets, MCT diets were prepared by blending MCTs and LCT in a low-carbohydrate high-fat diet feed made based on an AIN-93G standard composition feed, and an LCT diet was prepared by blending LCT (manufactured by Wako Pure Chemical Industries) alone, without MCT, in a low-carbohydrate high-fat diet feed made based on an AIN-93G standard composition feed. […]
(§2) The ingestion amounts of the test diets and the body weight changes during the test period (5 weeks) were measured, and the weights of the various organs including adipose tissues and the plasma levels of ketone bodies were measured at the end of the test period. […] In addition, plasma was collected from the collected blood, and ketone bodies were quantified according to an enzymatic method.

[2] = Plasma levels of ketone bodies 5 weeks after the beginning of ingestion (enzymatic method); conditions: conclusion from diet groups
Protocol: as §1, §2

[3] = Weights of adipose tissues 5 weeks after the beginning of ingestion; conditions: conclusion from diet groups, C8 vs C10 or C12
Protocol: as §1, §2

With `CCCCCCCC(=O)OCC(COC(=O)CCCCCCC)OC(=O)CCCCCCC` [caprylic acid triglyceride (C8), caprylic acid triglyceride] the “effect for suppressing body weight gain depending on the number of carbon atoms of the constituent fatty acid of MCT” value [1] was “has a higher effect for suppressing body weight gain than those of capric acid triglyceride (C10) and lauric acid triglyceride (C12)”, the “ketone body production, C8 vs C10 or C12 triglyceride” value [2] was “produces ketone bodies more than those produced by capric acid triglyceride (C10) or lauric acid triglyceride (C12)” and the “effect for suppressing neutral fat accumulation depending on the number of carbon atoms of the constituent fatty acid of MCT” value [3] was “has a higher effect for suppressing neutral fat accumulation than that of capric acid triglyceride (C10) or lauric acid triglyceride (C12)”.
